Measured values as given in patent US10220092B2, “Devices, systems and methods for optogenetic modulation of action potentials in target cells” (The Board of Trustees of the Leland Stanford Junior …, priority 2013, dated 2019).

Key:
[1] = test system: acid-sensing ion channels (ASICs); experiment: Pharmacological blockade of the ChR2 bystander current by the ASIC inhibitor amiloride; assay type: cell-based, mice
Experimental: Whole cell patch clamp recordings on cortical and hippocampus neurons were performed on an upright Leica DM-LFSA microscope. Slices were continually perfused in warmed (33° C.) ACSF at a rate of 7 ml min^−1 Patching was performed in the presence of synaptic transmission blockers 6-cyano-7-nitroquinoxaline-2,3-dione (CNQX, 50 μM) and D(−)-2-amino-5-phosphonovaleric acid (APV, 25 μM) and gabazine (25 μM) (Tocris Bioscience) except for during testing of electrically-evoked synaptic responses. For amiloride experiments, amiloride was added to the ACSF at a concentration of 500 μM (Tocris). Borosilicate glass (Sutter Instruments) pipette resistances were pulled to 3-6 MΩ and filled with potassium gluconate intracellular solution (130 mM K Gluconate, 10 mM KCl, 10 mM HEPES, 10 mM EGTA, 2 mM MgCl2, pH adjusted with KOH to 7.3). Voltage and current clamp electrophysiological recordings and manipulations were performed using pClamp (Axon Instruments). Cells were held at −70 mV for all experiments. Cells with leak current greater than −300 pA or pipette resistance greater than 30 MΩ were excluded. […]

[2] = test system: cultured hippocampal neurons; experiment: Whole cell patch clamp of cultured hippocampal neurons expressing eArch3.0-ASIC2a (Champ) constructs; assay type: cell-based, rat
Description: Construct design for hippocampal neurons: The protein sequence of rat ASIC2a (Genbank accession number NM_001034014.1) was human codon optimized and synthesized by Genscript. eArch3.0 and ASIC-YFP fusions were cloned into an AAV2 backbone either under a CaMKIIα or human synapsin promoter. The trafficking signal (TS) and endoplasmic reticulum export signal (ER) sequences were appropriately added to enhance membrane trafficking. All maps and sequence details are on the website: www(dot)optogenetics(dot)org.
Hippocampal neuron culture and calcium phosphate transfection (as per Mattis et al. (Nat Methods 2011; 9: 159-72)). Primary cultured hippocampal neurons were prepared from PO Sprague-Dawley rat pups (Charles River). CA1 and CA3 were isolated, digested with 0.4 mg ml^−1 papain (Worthington), and plated onto glass coverslips precoated with 1:30 Matrigel (Becton Dickinson Labware). […]
Electrophysiological recordings in cultured hippocampal neurons: Whole cell patch clamp recordings were performed on cultured hippocampal neurons 4-8 days post-transfection on an upright Leica DM-LFSA microscope (Mattis et al, 2011). […] Data acquisition, current and light manipulations were controlled using pClamp (Axon Instruments) via a Digidata 1440A interface and analyzed using ClampFit software (Axon Instruments). […]

Xenopus laevis oocytes = experiment: Two-electrode voltage clamp of CsR proton pump co-expressed with rat ASICs in oocytes; assay type: cell-based; settings: co-expressed with CsRT46N; 560 nm, 0.1 mM MOPS, pH 7.5
Experimental: Two-component optogenetics experiments. Construct design and expression in Xenopus laevis oocytes: The coding sequences for rat ASICs (in pRSSP6009) were provided by Stefan Grander (Aachen). The pRSSP6009 plasmid coding for ASICs and the pGEM plasmid coding for Coccomyxa subellipsoidea C-169 Rhodopsin CsRT46N were linearized by MulI site in pRSSP 6009 and by NheI in pGEM. After transcription into RNA using T7 (pGEM) or SP6 (pRSSP6009) mMessage mMachine Kit (Ambion Inc, Texas, USA) 32 ng of capped RNA encoding CsR pump and one type of ASIC were co-injected into Xenopus leavis oocytes with a molar ratio of 1:1 pump:channel for ASIC1 and ASIC2a and a molar ratio of 1:2 for ASIC3. Oocytes were incubated for 3 days at 18° C. in ORI solution with 1 μM all-trans retinal (Tsunoda & Hegemann, 2009).
Two-electrode voltage clamp measurements: TEVC measurements on X. laevis oocytes were performed using a GeneClamp 500 amplifier (Axon Instruments, Union City). Data acquisition, buffer exchange and light triggering were controlled with pClamp software via a Digidata 1322A interface (Molecular Devices, Sunnyvale). […] For pH titration, buffer solutions were adjusted with 5 mM MOPS/MES/Citrate over the range of pH 8.0 to 4.0, and were subsequently compared with photocurrents measured at 0.1 mM MOPS at pH 7.5

N=C(N)NC(=O)c1nc(Cl)c(N)nc1N [amiloride]
Magnitude of light-evoked bystander current, relative to baseline value ([1]; 500 μM amiloride applied for 20 minutes, hippocampal ChR2 bystander neurons, 15 s light pulse): ~50% | Membrane resistance during amiloride application ([1]; 500 μM amiloride, absence of any illumination): increase in membrane resistance

Champ4.0: eArch3.0 and ASIC2a separated during protein translation by the ribosomal skip sequence p2A; SEQ ID NO:34
Presence and reliability of the inward ASIC-mediated current component ([2]; head-to-head comparison, increasing molecular separation, 0.1 mM buffer): occasionally saw large ASIC currents | Cell health measures (leak current, membrane resistance, pipette resistance, resting membrane potential) across groups ([2]; one-way ANOVA across 5 groups): no significant differences

B1: ASIC3: rat acid-sensing ion channel co-expressed with CsR in oocytes (protein, UniProt O35240 1-533, looked up)
Acid-sensing ion channel 3: MKPRSGLEEAQRRQASDIRVFASSCTMHGLGHIFGPGGLTLRRGLWATAVLLSLAAFLYQVAERVRYYGEFHHKTTLDERESHQLTFPAVTLCNINPLRRSRLTPNDLHWAGTALLGLDPAEHAAYLRALGQPPAPPGFMPSPTFDMAQLYARAGHSLEDMLLDCRYRGQPCGPENFTVIFTRMGQCYTFNSGAHGAELLTTPKGGAGNGLEIMLDVQQEEYLPIWKDMEETPFEVGIRVQIHSQDEPPAIDQLGFGAAPGHQTFVSCQQQQLSFLPPPWGDCNTASLDPDDFDPEPSDPLGSPRPRPSPPYSLIGCRLACESRYVARKCGCRMMHMPGNSPVCSPQQYKDCASPALDAMLRKDTCVCPNPCATTRYAKELSMVRIPSRASARYLARKYNRSESYITENVLVLDIFFEALNYEAVEQKAAYEVSELLGDIGGQMGLFIGASLLTILEILDYLCEVFQDRVLGYFWNRRSAQKRSGNTLLQEELNGHRTHVPHLSLGPRPPTTPCAVTKTLSASHRTCYLVTRL
Inactivation in sustained light (Xenopus laevis oocytes): strong inactivation
